# Source: PubChem BioAssay AID342 (DTP/NCI, 2004)
# Where “and” joins values, the source holds several entries; their conditions need not be identical. Equal entries are not always repeated.
# System: Swiss mice, Sarcoma 180 sc, mean tumor weight T/C
# Assay: NCI In Vivo Anticancer Drug Screen. Data for tumor model Sarcoma 180 (subcutaneous) in Swiss mice
# Settings: endpoint: mean tumor weight, higher = larger tumour
# Procedure, shortened: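 T/C ratio: treated over vehicle-treated controls, measuring survival or tumor size in transplanted-tumor mice.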
# [1] = dose: 360.0 mg/kg/injection, schedule: Q01DX007 (sc), vehicle: steriod suspending solution
# [2] = dose: 25.0 mg/kg/injection, schedule: Q01DX007 (ip), vehicle: carboxymethylcellulose (CMC)
# [3] = dose: 50.0 mg/kg/injection, schedule: Q01DX007 (ip), vehicle: carboxymethylcellulose (CMC)
structure (smiles),measurement,setting,value
CCC(=O)O[C@H]1CC[C@H]2[C@@H]3CCC4=CC(=O)CC[C@]4(C)[C@H]3CC[C@]12C,T/C,"dose: 90.0 mg/kg/injection, schedule: Q01DX007 (sc), vehicle: steriod suspending solution",102 % of control
same,T/C,"dose: 125.0 mg/kg/injection, schedule: Q01DX007 (sc), vehicle: steriod suspending solution",82 % of control
same,T/C,"dose: 180.0 mg/kg/injection, schedule: Q01DX007 (sc), vehicle: steriod suspending solution",104 % of control
same,T/C,"dose: 250.0 mg/kg/injection, schedule: Q01DX007 (sc), vehicle: steriod suspending solution",102 % of control
same,T/C,[1],107 % of control
same,T/C,"dose: 500.0 mg/kg/injection, schedule: Q01DX007 (sc), vehicle: steriod suspending solution",60 % of control
same,T/C,"dose: 720.0 mg/kg/injection, schedule: Q01DX007 (sc), vehicle: steriod suspending solution",69 % of control
same,T/C,"dose: 1000.0 mg/kg/injection, schedule: Q01DX007 (sc), vehicle: steriod suspending solution",64 % of control
O=C(Nc1ccc2c(c1)Cc1cccc(NC(=O)C(Cl)Cl)c1-2)C(Cl)Cl,T/C,"dose: 222.0 mg/kg/injection, schedule: Q01DX007 (ip), vehicle: carboxymethylcellulose (CMC)",76 % of control
same,T/C,"dose: 222.0 mg/kg/injection, schedule: Q01DX007 (ip), vehicle: methylcellulose (MC)",46 % of control
same,T/C,"dose: 222.0 mg/kg/injection, schedule: Q01DX007 (ip), vehicle: other",52 % of control
same,T/C,"dose: 333.0 mg/kg/injection, schedule: Q01DX007 (ip), vehicle: carboxymethylcellulose (CMC)",70 % of control and 90 % of control
same,T/C,"dose: 333.0 mg/kg/injection, schedule: Q01DX007 (ip), vehicle: methylcellulose (MC)",69 % of control
same,T/C,"dose: 333.0 mg/kg/injection, schedule: Q01DX007 (ip), vehicle: other",81 % of control
same,T/C,"dose: 500.0 mg/kg/injection, schedule: Q01DX007 (ip), vehicle: carboxymethylcellulose (CMC)",48 % of control and 58 % of control
same,T/C,"dose: 500.0 mg/kg/injection, schedule: Q01DX007 (ip), vehicle: methylcellulose (MC)",87 % of control
same,T/C,"dose: 500.0 mg/kg/injection, schedule: Q01DX007 (ip), vehicle: other",122 % of control
same,T/C,"dose: 750.0 mg/kg/injection, schedule: Q01DX007 (ip), vehicle: carboxymethylcellulose (CMC)",48 % of control
same,T/C,"dose: 750.0 mg/kg/injection, schedule: Q01DX007 (ip), vehicle: methylcellulose (MC)",46 % of control
same,T/C,"dose: 750.0 mg/kg/injection, schedule: Q01DX007 (ip), vehicle: other",89 % of control
CC(=O)OCC(=O)[C@@]1(O)[C@H](C)C[C@H]2[C@@H]3C=C(C)C4=Cc5c(cnn5-c5ccc(F)cc5)C[C@]4(C)[C@H]3[C@@H](O)C[C@@]21C,T/C,"dose: 0.44 mg/kg/injection, schedule: Q01DX007 (sc), vehicle: steriod suspending solution",108 % of control
same,T/C,"dose: 0.66 mg/kg/injection, schedule: Q01DX007 (sc), vehicle: steriod suspending solution",85 % of control
same,T/C,"dose: 2.25 mg/kg/injection, schedule: Q01DX007 (sc), vehicle: steriod suspending solution",23 % of control and 34 % of control
same,T/C,"dose: 3.38 mg/kg/injection, schedule: Q01DX007 (sc), vehicle: steriod suspending solution",37 % of control and 44 % of control and 62 % of control
same,T/C,"dose: 5.07 mg/kg/injection, schedule: Q01DX007 (sc), vehicle: steriod suspending solution",26 % of control and 49 % of control
same,T/C,"dose: 7.61 mg/kg/injection, schedule: Q01DX007 (sc), vehicle: steriod suspending solution",24 % of control
same,T/C,"dose: 11.42 mg/kg/injection, schedule: Q01DX007 (sc), vehicle: steriod suspending solution",24 % of control
C=CCOc1ccc2c(c1)CC[C@@H]1[C@@H]2CC[C@]2(C)[C@@H](O)[C@@H](O)C[C@@H]12,T/C,"dose: 0.25 mg/kg/injection, schedule: Q#A X014 (sc), vehicle: steriod suspending solution",90 % of control
same,T/C,"dose: 0.5 mg/kg/injection, schedule: Q01DX007 (sc), vehicle: steriod suspending solution",106 % of control
same,T/C,"dose: 1.25 mg/kg/injection, schedule: Q01DX007 (sc), vehicle: steriod suspending solution",77 % of control
same,T/C,"dose: 1.25 mg/kg/injection, schedule: Q#A X014 (sc), vehicle: steriod suspending solution",68 % of control
same,T/C,"dose: 2.5 mg/kg/injection, schedule: Q01DX007 (sc), vehicle: steriod suspending solution",91 % of control
same,T/C,"dose: 2.5 mg/kg/injection, schedule: Q#A X014 (ip), vehicle: methylcellulose (MC)",84 % of control
same,T/C,"dose: 2.5 mg/kg/injection, schedule: Q#A X014 (sc), vehicle: steriod suspending solution",36 % of control
same,T/C,"dose: 10.0 mg/kg/injection, schedule: Q#A X014 (sc), vehicle: steriod suspending solution",60 % of control
CC(=O)Nc1c(Cl)c(Cl)c2c(c1Cl)Cc1cc(Br)ccc1-2,T/C,"dose: 3.0 mg/kg/injection, schedule: Q01DX007 (ip), vehicle: carboxymethylcellulose (CMC)",75 % of control
same,T/C,"dose: 6.0 mg/kg/injection, schedule: Q01DX007 (ip), vehicle: carboxymethylcellulose (CMC)",74 % of control
same,T/C,"dose: 6.0 mg/kg/injection, schedule: Q01DX007 (ip), vehicle: other",38 % of control
same,T/C,"dose: 9.0 mg/kg/injection, schedule: Q01DX007 (ip), vehicle: other",69 % of control
same,T/C,"dose: 12.0 mg/kg/injection, schedule: Q01DX007 (ip), vehicle: carboxymethylcellulose (CMC)",45 % of control
same,T/C,"dose: 13.0 mg/kg/injection, schedule: Q01DX007 (ip), vehicle: other",46 % of control
same,T/C,"dose: 19.0 mg/kg/injection, schedule: Q01DX007 (ip), vehicle: other",56 % of control
same,T/C,[2],63 % of control
same,T/C,"dose: 28.0 mg/kg/injection, schedule: Q01DX007 (ip), vehicle: other",35 % of control
same,T/C,"dose: 41.0 mg/kg/injection, schedule: Q01DX007 (ip), vehicle: other",62 % of control
same,T/C,[3],49 % of control
same,T/C,"dose: 63.0 mg/kg/injection, schedule: Q01DX007 (ip), vehicle: other",33 % of control
same,T/C,"dose: 100.0 mg/kg/injection, schedule: Q01DX007 (ip), vehicle: carboxymethylcellulose (CMC)",30 % of control
Clc1[nH]nc2ccccc12,T/C,"dose: 42.0 mg/kg/injection, schedule: Q#A X014 (ip), vehicle: methylcellulose (MC)",62 % of control and 85 % of control (2×)
C[C@]12CC[C@H](O)CC1=CC[C@@H]1[C@@H]2[C@@H](O)C[C@@]2(C)[C@H]1CC[C@]2(C)O,T/C,"dose: 25.0 mg/kg/injection, schedule: Q#A X014 (sc), vehicle: steriod suspending solution",87 % of control
same,T/C,"dose: 100.0 mg/kg/injection, schedule: Q#A X014 (sc), vehicle: steriod suspending solution",113 % of control
same,T/C,"dose: 200.0 mg/kg/injection, schedule: Q#A X014 (sc), vehicle: steriod suspending solution",76 % of control
C[C@]12C=CC(=O)C=C1CC[C@@H]1[C@@H]2[C@@H](O)C[C@@]2(C)[C@H]1CC[C@]2(O)C(=O)CF,T/C,"dose: 6.0 mg/kg/injection, schedule: Q01DX007 (sc), vehicle: steriod suspending solution",77 % of control
same,T/C,"dose: 9.0 mg/kg/injection, schedule: Q01DX007 (sc), vehicle: steriod suspending solution",91 % of control
same,T/C,"dose: 13.3 mg/kg/injection, schedule: Q01DX007 (sc), vehicle: steriod suspending solution",82 % of control
same,T/C,"dose: 20.0 mg/kg/injection, schedule: Q01DX007 (sc), vehicle: steriod suspending solution",35 % of control and 49 % of control and 54 % of control
same,T/C,"dose: 45.0 mg/kg/injection, schedule: Q01DX007 (sc), vehicle: steriod suspending solution",32 % of control
same,T/C,"dose: 70.0 mg/kg/injection, schedule: Q01DX007 (sc), vehicle: steriod suspending solution",27 % of control and 32 % of control and 36 % of control
same,T/C,"dose: 107.0 mg/kg/injection, schedule: Q01DX007 (sc), vehicle: steriod suspending solution",32 % of control
same,T/C,"dose: 158.0 mg/kg/injection, schedule: Q01DX007 (sc), vehicle: steriod suspending solution",36 % of control
same,T/C,"dose: 160.0 mg/kg/injection, schedule: Q01DX007 (sc), vehicle: steriod suspending solution",24 % of control
same,T/C,"dose: 352.0 mg/kg/injection, schedule: Q01DX007 (sc), vehicle: steriod suspending solution",52 % of control
same,T/C,"dose: 358.0 mg/kg/injection, schedule: Q01DX007 (sc), vehicle: steriod suspending solution",33 % of control
same,T/C,[1],33 % of control
same,T/C,"dose: 537.0 mg/kg/injection, schedule: Q01DX007 (sc), vehicle: steriod suspending solution",39 % of control and 56 % of control
same,T/C,"dose: 540.0 mg/kg/injection, schedule: Q01DX007 (sc), vehicle: steriod suspending solution",20 % of control and 22 % of control
same,T/C,"dose: 801.0 mg/kg/injection, schedule: Q01DX007 (sc), vehicle: steriod suspending solution",49 % of control
same,T/C,"dose: 1202.0 mg/kg/injection, schedule: Q01DX007 (sc), vehicle: steriod suspending solution",61 % of control
CO[C@H]1CC[C@@]2(C)[C@@H](CC[C@H]3[C@@H]4C[C@H](O)C[C@@]4(C)CC[C@@H]32)C1,T/C,"dose: 0.01 mg/kg/injection, schedule: Q#A X014 (sc), vehicle: olive oil, sesame oil, peanut oil",121 % of control
same,T/C,"dose: 0.05 mg/kg/injection, schedule: Q#A X014 (sc), vehicle: olive oil, sesame oil, peanut oil",72 % of control
same,T/C,"dose: 0.25 mg/kg/injection, schedule: Q#A X014 (sc), vehicle: olive oil, sesame oil, peanut oil",112 % of control
same,T/C,"dose: 50.0 mg/kg/injection, schedule: Q#A X014 (ip), vehicle: distilled water + alcohol",95 % of control
CN=C(N)c1ccc(N=C(N)c2ccc(C(N)=Nc3ccc(C(N)=NC)cc3)cc2)cc1,T/C,"dose: 12.5 mg/kg/injection, schedule: Q01DX007 (ip), vehicle: carboxymethylcellulose (CMC)",124 % of control
same,T/C,[2],86 % of control
same,T/C,[3],80 % of control
